Experiments:
[1] = tested on: iPSC-derived cholangiocytes; assay: Cyst formation in 3D gel culture of iPSC-derived cholangiocytes; format: cell-based, human; conditions: normal iPSC-derived cholangiocytes
Text: After embedding in collagen/Matrigel culture, cyst formation was induced from the aggregates by the addition of forskolin for the first week of the two-week culture period (left). Without forskolin stimulation, the CF-iPSCs derived cholangiocytes formed branched ductal structure rather than hollow cysts (right).
CF-iPSCs derived cholangiocytes were maintained in the 3D gel conditions in the presence or absence of forskolin for the first week of the two weeks culture period (left graph). Normal iPS cells-derived cholangiocytes were maintained in the presence or absence of CFTR inhibitor for the first week of the two-week culture periods (right graph). […] Addition of the CFTR inhibitor to normal iPSC-derived cholangiocytes delayed cyst formation (right graph).
Both hiPSC lines generated hepatoblast populations with kinetics similar to those observed for wild type hPSCs (FIG. 24a, b). […] However, many of the cysts that developed from the patient iPSC we not completely hollow, but rather contained branched ductal structures (FIG. 19c).

CFTR = molecular target: T1, CFTR (Homo sapiens, UniProt P13569); assay: Forskolin-induced swelling assay on hPSC-derived cystic structures; format: cell-based; conditions: hPSC-derived cysts
T1 construct: hPSC-derived cyst structures generated in 3D gels contain functional CFTR protein; endogenous in cells; host or cells: cysts from H9 hESC- and Y2-1 iPSC-derived cholangiocytes
T1 sequence (P13569 whole entry): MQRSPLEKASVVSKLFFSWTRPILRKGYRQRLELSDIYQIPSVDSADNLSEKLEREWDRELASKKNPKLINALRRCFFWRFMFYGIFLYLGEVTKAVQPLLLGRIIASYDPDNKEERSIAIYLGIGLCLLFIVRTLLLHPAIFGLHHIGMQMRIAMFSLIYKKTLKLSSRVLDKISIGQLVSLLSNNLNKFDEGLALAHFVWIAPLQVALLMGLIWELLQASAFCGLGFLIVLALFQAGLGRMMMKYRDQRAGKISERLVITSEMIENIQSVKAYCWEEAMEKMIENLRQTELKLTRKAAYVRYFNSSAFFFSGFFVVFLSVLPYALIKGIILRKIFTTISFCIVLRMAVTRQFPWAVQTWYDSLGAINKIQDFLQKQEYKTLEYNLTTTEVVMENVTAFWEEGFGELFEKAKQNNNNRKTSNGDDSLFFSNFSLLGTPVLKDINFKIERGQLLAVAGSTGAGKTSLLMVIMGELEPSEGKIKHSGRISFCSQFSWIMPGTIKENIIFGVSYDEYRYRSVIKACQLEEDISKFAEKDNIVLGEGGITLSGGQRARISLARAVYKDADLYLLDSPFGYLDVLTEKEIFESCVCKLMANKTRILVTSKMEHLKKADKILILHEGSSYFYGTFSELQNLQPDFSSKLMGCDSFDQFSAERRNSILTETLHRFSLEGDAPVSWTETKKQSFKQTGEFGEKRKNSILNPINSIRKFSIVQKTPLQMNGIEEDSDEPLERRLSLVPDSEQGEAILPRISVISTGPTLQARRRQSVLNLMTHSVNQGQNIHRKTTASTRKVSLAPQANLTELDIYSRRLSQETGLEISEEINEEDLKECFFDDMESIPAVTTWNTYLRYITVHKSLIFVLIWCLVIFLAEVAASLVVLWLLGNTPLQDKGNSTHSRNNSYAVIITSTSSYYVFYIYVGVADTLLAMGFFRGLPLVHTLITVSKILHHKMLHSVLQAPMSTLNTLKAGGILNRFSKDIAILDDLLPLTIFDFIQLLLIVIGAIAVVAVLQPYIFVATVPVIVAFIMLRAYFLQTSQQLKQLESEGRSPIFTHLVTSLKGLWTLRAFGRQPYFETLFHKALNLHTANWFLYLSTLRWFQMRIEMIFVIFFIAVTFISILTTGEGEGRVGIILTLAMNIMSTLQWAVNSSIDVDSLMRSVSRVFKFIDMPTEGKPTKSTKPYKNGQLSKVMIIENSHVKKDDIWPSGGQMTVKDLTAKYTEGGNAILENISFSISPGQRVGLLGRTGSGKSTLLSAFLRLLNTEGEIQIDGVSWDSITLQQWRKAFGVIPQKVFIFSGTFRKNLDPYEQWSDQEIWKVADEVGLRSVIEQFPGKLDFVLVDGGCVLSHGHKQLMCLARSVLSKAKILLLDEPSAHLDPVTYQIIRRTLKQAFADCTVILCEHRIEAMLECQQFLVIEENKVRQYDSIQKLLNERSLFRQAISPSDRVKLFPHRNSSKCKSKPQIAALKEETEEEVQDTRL
Text: F/I stimulated cyst swelling was quantified using velocity imaging software. The total size of the cysts is normalized to that prior to F/I stimulation. Values are from three individual experiments.
With this assay, activation of the cAMP pathway by the addition of Forskolin/IBMX increases CFTR function resulting in fluid transport and swelling of the cyst. Swelling can be visualized following staining with calcein green, a cell-permeable fluorescent dye (FIG. 18a).

other kinases = conditions: in vitro kinase assays; cited from earlier work
hPSCs = assay: Definitive endoderm induction with CHIR99021 replacing Wnt3a, flow cytometry; format: cell-based, human; conditions: in combination with activin
Method: CHIR99021 is a selective inhibitor of GSK3 that has been reported to mimic the canonical Wnt signal pathway. CHIR99021 was tested as a replacement of wnt3a (e.g. added in combination with activin) in inducing Embryoid bodies and monolayer induction for definitive endoderm cells from hPSCs. […] At day 0, the cells were cultured in a RPMI based medium supplemented with glutamine (2 mM), MTG (4.5×10^−4 M: Sigma), activin A (100 ng/ml), CHIR99021 (0.3 μM) or Wnt3a (25 ng/ml). […] The media was changed every the other day. At day 7, the definitive endoderm was specified to a hepatic fate by treatment with FGF and BMP pathway agonists, as described above.

[2] = tested on: day six EB-derived monolayer cells; assay: Extended activin treatment of EB-derived monolayer cells, flow cytometry; format: cell-based, human
Method: FIG. 3A is an intracellular flow cytometric analysis showing the proportion of SOX17^+ and FOXA2^+ cells in day six activin/Wnt3A-induced EBs as well as in monolayer populations derived from them. The monolayer populations were cultured either directly in the specification media (−activin) or for two days in activin (50 ng/ml) and then in the specification media (+activin). Populations were analyzed following two or four days culture in the specification media (total days eight and 10 for the −activin group and days 10 and 12 for the +activin group). Bars represent standard deviation (SD) of the mean of three independent experiments.
FIG. 3E is a flow cytometric analysis showing the proportion of CD31^+ CD90^+ and EPCAM^+ cells in monolayer populations derived from activin treated (day 26) and non-treated (day 24) endoderm. […] In contrast, a higher portion of EPCAM^+ cells was detected in the population derived from the activin-treated endoderm compared to the population generated from the non-treated cells (EPCAM: 90.7+/−2.7% vs 56.8+/−7.3%; P<0.01, n=3).
It was not known if prolonged signaling would be useful with human PSC. The effect of increasing the duration of this signaling pathway was extended in the human system by culturing the monolayer cells for two days in activin prior to the FGF/BMP4 specification step. […] Without being bound by theory, since the total cell number was lower in the treated population (FIG. 3b) it is possible that activin signaling at this stage preferentially supports the survival of endodermal cells.
(§1) Media was changed every 3 days.
Flow cytometric analyses were performed as described previously^45. For cell surface markers, staining was carried out in PBS with 10% FCS. For intracellular proteins, staining was performed on cells fixed with 4% paraformaldehyde (Electron Microscopy Science, Hatfield, PA, USA) in PBS. Cells were permeabilized with 90% ice-cold methanol for 20 minutes for Sox17 and FoxA2 staining as previously described^45. Albumin and alpha-fetoprotein staining was performed in PBS with 10% FCS and 0.5% saponin (Sigma). Stained cells were analyzed using an LSRII flow cytometer (BD).

[3] = tested on: hESC-derived embryoid bodies; assay: Endoderm induction in hESC-derived embryoid bodies, flow cytometry; format: cell-based, human; conditions: day six EBs
Method: Similar to protocols using monolayer cultures^16, it involves specific steps that recapitulate the critical stages of liver development in the early embryo. EBs are formed from small aggregates by culture for 24 hours in low levels of BMP4, as previously described^18. The EBs are subsequently exposed to high concentrations of activin A (hereafter referred to as activin) for five days to induce definitive endoderm, a population defined by expression of the surface markers CXCR4, CKIT and EPCAM and the transcription factors SOX17 and FOXA2.
Addition of Wnt3A to the activin-induced EB cultures led to reproducible increases in the proportion of CXCR4^+, SOX17^+ and FOXA2^+ cells within the EBs (FIG. 1c). With the increase in CXCR4 expression, the proportion of CKIT^+CXCR4^+ and CXCR4^+EPCAM^+ cells increased to greater than 95% of the population. […] Endoderm induction in the EBs was influenced by the base culture media used. StemPro34 supported more efficient endoderm induction than neural basal media that we used previously (FIG. 1f). The induction of highly enriched endoderm is an important first step in the efficient and reproducible generation of hepatocyte-like cells from hPSCs.
as §1
Flow cytometric analyses were performed as described previously^45. […] Stained cells were analyzed using an LSRII flow cytometer (BD).

[4] = tested on: H9 hESCs, H1 hESCs and 38-2 iPSCs; assay: Hepatic specification from other hPSC lines, flow cytometry; format: cell-based, human
Text: To determine whether the approach detailed above is broadly applicable to different human pluripotent stem cell lines the protocol was used to differentiate the hESC lines H9 and H1 as well as an induced pluripotent cell (iPSC) line 38-2 to a hepatic fate. Day six EBs from all three lines contained high proportions of CKIT^+CXCR4^+ and CKIT^EPCAM* cells following the Wnt3a/activin induction step (FIG. 7a). Although the proportion of EPCAIVT cells was high in all EBs, the H9-derived cells expressed substantially higher levels of EPCAM than cells generated from the other lines. The levels of EPCAM expression correlated with the degree of endoderm induction, as greater than 95% of the H9-derived population expressed SOX17^+ and FOXA2^+ whereas only 65-70% of the iPSC-derived cells expressed these transcription factors (FIG. 7a). These findings indicate that surface marker analysis alone is not sufficient to monitor endoderm development and that quantitative analyses of SOX17 and FOXA2 expression is required to measure induction of this germ layer. As observed with the HES2 cells, extended activin/nodal signaling improved hepatic development of the CKIT^+CXCR4^+ population from each line (FIG. 7b). However, the duration of activin treatment necessary to generate significant levels of ALB expression varied between cell lines. Whereas higher levels of ALB expression were achieved following two days of activin treatment with H9-derived cells, both H1 and 38-2 cells required four days of additional activin signaling. With this treatment, it was possible to generate cultures consisting of 90%, 85% and 70% ALB^+ cells from the H9, H1 and 38-2 cell lines, respectively (FIG. 7c).
as §1
Flow cytometric analyses were performed as described previously^45. For cell surface markers, staining was carried out in PBS with 10% FCS. For intracellular proteins, staining was performed on cells fixed with 4% paraformaldehyde (Electron Microscopy Science, Hatfield, PA, USA) in PBS. […] Stained cells were analyzed using an LSRII flow cytometer (BD).

[5] = day 10/12, two days activin 50 ng/ml before specification media
[6] = monolayer from activin treated endoderm, day 26

In the case of `O=C(O)c1ccc(/C=C2\SC(=S)N(c3cccc(C(F)(F)F)c3)C2=O)cc1` [CFTRinh-172], the cyst formation [1] is reported as “delayed” and the “effect on Forskolin/IBMX induced swelling” value (CFTR) is reported as “blocked”.
In the case of `Cc1c[nH]c(-c2cnc(NCCNc3ccc(C#N)cn3)nc2-c2ccc(Cl)cc2Cl)n1` [CHIR 99021], the “effect on other kinases” value (other kinases) is given as “little effect” and the “proportion of CKIT+CXCR4+ and CXCR4+EPCAM+ cells” value (hPSCs) is given as “greater than 95%”.
With activin: Activin A, nodal agonist the “proportion of FOXA2+ cells” value [2, 5] was 92.7+/−2.5%, the “proportion of SOX17+ cells” value [2, 5] was 73.3+/−7.5% and the “proportion of FOXA2+ cells” value ([2]; days 8/10, two days activin 50 ng/ml before specification media) was 96.1+/−0.9%. The “proportion of CD31+ cells” value [2, 6] was 0.49+/−0.11%, the “proportion of CD90+ cells” value [2, 6] was 8.5+/−1.19% and the “proportion of EPCAM+ cells” value [2, 6] was 90.7+/−2.7%. The “proportion co-expressing CXCR4 and CKIT or CXCR4 and EPCAM” value [3] was “greater than 90%”, the “ALB+ cells” value ([4]; 38-2, four days additional activin) was 70% and the “ALB+ cells” value ([4]; H1, four days additional activin) was 85%. For the same compound, the “ALB+ cells” value ([4]; H9, two days additional activin) was 90%.

Source: patent US12129490B2, “Methods for generating hepatocytes and cholangiocytes from pluripotent stem cells” (UNIVERSITY HEALTH NETWORK, priority 2018, dated 2024)
